Reference: patent US8865623B2, “Herbicidally active cyclic diones and derivatives thereof, processes for their preparation, compositions, and method of controlling weeds” (Syngenta Limited, priority 2009, dated 2014)

Columns and labels:
Type in all cases: in vivo
[1] = test system: Alopecurus myosuroides (ALOMY); assay: Pre-emergence herbicidal activity, glasshouse pot test; conditions: evaluated after 13 days; for pest or weed control at 250 g/ha: Alopecurus myosuroides, 312 h, Rate 250 g/ha, pre-emergence spray, read-out: Pre-emergence activity ALOMY (100=total damage to plant; 0=no damage to plant)
Method in brief: (§1)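 Pot-grown plants in standard soil received a spray one day post-sowing (pre-emergence) or after eight days' growth (post-emergence). Scoring took place 13 days later on a 0–100 scale, 100 meaning total damage.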

Avena fatua (AVEFA) [2] = assay: as above; conditions: evaluated after 13 days; for pest or weed control at 250 g/ha: Avena fatua, 312 h, Rate 250 g/ha, pre-emergence spray, read-out: Pre-emergence activity AVEFA (100=total damage to plant; 0=no damage to plant)
Method in brief: as §1

Lolium perenne (LOLPE) [3] = assay: as above; conditions: evaluated after 13 days; for pest or weed control at 250 g/ha: Lolium perenne, 312 h, Rate 250 g/ha, pre-emergence spray, read-out: Pre-emergence activity LOLPE (100=total damage to plant; 0=no damage to plant)
Method in brief: as §1

[4] = test system: Echinochloa crus-galli (ECHCG); assay: as above; conditions: evaluated after 13 days; for pest or weed control at 250 g/ha: Echinochloa crus-galli, 312 h, Rate 250 g/ha, pre-emergence spray, read-out: Pre-emergence activity ECHCG (100=total damage to plant; 0=no damage to plant)
Method in brief: as §1

[5] = test system: Alopecurus myosuroides (ALOMY); assay: Post-emergence herbicidal activity, glasshouse pot test; conditions: rate 250 g/ha, evaluated after 13 days; for pest or weed control at 250 g/ha: Alopecurus myosuroides, 312 h, glasshouse, read-out: Post-emergence activity ALOMY (100=total damage to plant; 0=no damage to plant)
Method in brief: as §1

Avena fatua (AVEFA) [6] = assay: as above; conditions: rate 250 g/ha, evaluated after 13 days; for pest or weed control at 250 g/ha: Avena fatua, 312 h, glasshouse, read-out: Post-emergence activity AVEFA (100=total damage to plant; 0=no damage to plant)
Method in brief: as §1

Lolium perenne (LOLPE) [7] = assay: as above; conditions: rate 250 g/ha, evaluated after 13 days; for pest or weed control at 250 g/ha: Lolium perenne, 312 h, glasshouse, read-out: Post-emergence activity LOLPE (100=total damage to plant; 0=no damage to plant)
Method in brief: as §1

[8] = test system: Echinochloa crus-galli (ECHCG); assay: as above; conditions: rate 250 g/ha, evaluated after 13 days; for pest or weed control at 250 g/ha: Echinochloa crus-galli, 312 h, glasshouse, read-out: Post-emergence activity ECHCG (100=total damage to plant; 0=no damage to plant)
Method in brief: as §1

Row | SMILES | pest or weed control at 250 g/ha [1] [%] | pest or weed control at 250 g/ha (Avena fatua (AVEFA) [2]) [%] | pest or weed control at 250 g/ha (Lolium perenne (LOLPE) [3]) [%] | pest or weed control at 250 g/ha [4] [%] | pest or weed control at 250 g/ha [5] [%] | pest or weed control at 250 g/ha (Avena fatua (AVEFA) [6]) [%] | pest or weed control at 250 g/ha (Lolium perenne (LOLPE) [7]) [%] | pest or weed control at 250 g/ha [8] [%] | ALOMY damage to plant (100=total damage to plant; 0=no damage to plant) ([1]; pre-emergence, rate 250 g/ha) | AVEFA damage to plant (100=total damage to plant; 0=no damage to plant) (Avena fatua (AVEFA) [2]; pre-emergence, rate 250 g/ha) | LOLPE damage to plant (100=total damage to plant; 0=no damage to plant) (Lolium perenne (LOLPE) [3]; pre-emergence, rate 250 g/ha) | ECHCG damage to plant (100=total damage to plant; 0=no damage to plant) ([4]; pre-emergence, rate 250 g/ha) | ALOMY damage to plant (100=total damage to plant; 0=no damage to plant) [5] | AVEFA damage to plant (100=total damage to plant; 0=no damage to plant) (Avena fatua (AVEFA) [6]) | LOLPE damage to plant (100=total damage to plant; 0=no damage to plant) (Lolium perenne (LOLPE) [7]) | ECHCG damage to plant (100=total damage to plant; 0=no damage to plant) [8]
1 | CCc1ccc(Oc2ccc(C(F)(F)F)c(C#N)c2)cc1C1=C(O)CC2(CCOCC2)CC1=O [Example A-266] | 50 | 50 | 90 | 90 | 90 | 90 | 70 | 100 | – | – | – | – | – | – | – | –
2 | CCc1ccc(Oc2ccc(Br)cc2Cl)cc1C1=C(O)CC2(CCOCC2)CC1=O [Example A-189] | 50 | 40 | 60 | 90 | 90 | 100 | 90 | 100 | – | – | – | – | – | – | – | –
3 | CCc1ccc(Oc2ccc(C#N)c(F)c2)cc1C1=C(O)C(C)(C)OC(C)(C)C1=O [Example A-116] | 0 | 0 | 20 | 20 | 80 | 30 | 40 | 100 | – | – | – | – | – | – | – | –
4 | CCc1ccc(Oc2nc(C(F)(F)F)c(C#N)s2)cc1C1=C(O)C(C)(C)OC(C)(C)C1=O [Example A-115] | 0 | 0 | 0 | 0 | 0 | 10 | 0 | 60 | – | – | – | – | – | – | – | –
5 | CCc1ccc(Oc2ccc(Cl)c(F)c2)cc1C1=C(O)C(C)(C)OC(C)(C)C1=O [Example A-31] | 90 | 80 | 100 | 100 | 90 | 80 | 100 | 100 | – | – | – | – | – | – | – | –
6 | CCc1ccc(Oc2cc(Cl)cc(Cl)n2)cc1C1=C(O)C(C)(C)OC(C)(C)C1=O [Example A-145] | 10 | 0 | 10 | 20 | 20 | 20 | 20 | 70 | – | – | – | – | – | – | – | –
7 | CCc1ccc(Oc2ccc(C(F)(F)F)c(Cl)c2)cc1C1=C(O)[C@@H]2CC[C@](C)(C1=O)C2(C)C [Example A-315] | 80 | 60 | 100 | 100 | 40 | 80 | 90 | 90 | – | – | – | – | – | – | – | –
8 | CCc1ccc(Oc2c(F)cc(C(F)(F)F)cc2F)cc1C1=C(O)C(C)(C)OC(C)(C)C1=O [Example A-205] | 20 | 10 | 60 | 60 | 70 | 60 | 90 | 100 | – | – | – | – | – | – | – | –
9 | CCc1ccc(Oc2ccc(C#N)cc2F)cc1C1=C(OC(=O)OC)C(C)(C)OC(C)(C)C1=O [Example P-4] | – | – | – | – | – | – | – | – | 80 | 60 | 100 | 100 | 90 | 60 | 90 | 100
10 | CCc1ccc(Oc2ccc(Br)c(Cl)c2)cc1C1=C(O)[C@H]2CC[C@H](C2)C1=O [Example A-247] | 90 | 50 | 90 | 100 | 90 | 100 | 100 | 100 | – | – | – | – | – | – | – | –
